Test results as given in ChEMBL document CHEMBL1250493, “Interaction of daunomycin with acetylated chromatin” (J Med Chem, 2010).

Legend:
Gallus gallus [1] = species: Gallus gallus; experiment: Binding affinity to histone H1 containing chromatin in chicken erythroleukemic cells mononucleosomes transformed with Marek's virus by Scatchard plot analysis
Gallus gallus [2] = species: Gallus gallus; experiment: Binding affinity to histone H1 depleted chromatin in chicken erythroleukemic cells mononucleosomes transformed with Marek's virus by Scatchard plot analysis

## COc1cccc2c1C(=O)c1c(O)c3c(c(O)c1C2=O)C[C@@](O)(C(C)=O)C[C@@H]3O[C@H]1C[C@H](N)[C@H](O)[C@H](C)O1
Gallus gallus [1]
  K: 4.6 ×10⁴ /M
Gallus gallus [2]
  K: 6.4 ×10⁴ /M
